# Laboratory results as given in patent US20190021321A1, “BROAD SPECTRUM ANTIMICROBIAL & ANTICOAGULANT COMPOSITION” (priority 2016, published 2019).
# Where two headings read alike, the source gives them in different places.
# Key:
# C. albicans [1] = assay: Rate kill assay, plate count (Part A synergy; Part B pH and D-Mannitol effect); format: cell-based; conditions: D-Mannitol 0.73 wt % alone, both at pH 7.5 & 11
# Method: The second set of experiments conducted, were “Rate Kill” assay. A rate kill assay can confirm whether combinations are synergistic or not. In these assays the formulations are first exposed to organisms for a desired time (for the current formulations readings were taken at 1, 3 and 24 hours). Then a sample of the organisms and formulation mixture is serially diluted and plated to assess the log reduction. The organisms are allowed to grow and are checked for growth/log reduction after 24 hrs. The log reduction values obtained for individual components are compared with the combinations.
# The following solutions were prepared:
# Each solution was then combined with C. albicans and the log reduction of the C. albicans was measured at 1, 3 and 24 hours.
# P. aeruginosa [2] = assay: as above; format: cell-based
# Method: In these assays the formulations are first exposed to organisms for a desired time (for the current formulations readings were taken at 1, 3 and 24 hours). Then a sample of the organisms and formulation mixture is serially diluted and plated to assess the log reduction. The organisms are allowed to grow and are checked for growth/log reduction after 24 hrs. The log reduction values obtained for individual components are compared with the combinations.
# Each solution was then combined with P. aeruginosa and the log reduction of the P. aeruginosa was measured at 1, 3 and 24 hours.
# S. aureus [3] = assay: as above; format: cell-based; conditions: D-Mannitol 0.73 wt % alone, both at pH 7.5 & 11
# Method: The second set of experiments conducted, were “Rate Kill” assay. […] In these assays the formulations are first exposed to organisms for a desired time (for the current formulations readings were taken at 1, 3 and 24 hours). Then a sample of the organisms and formulation mixture is serially diluted and plated to assess the log reduction. The organisms are allowed to grow and are checked for growth/log reduction after 24 hrs. The log reduction values obtained for individual components are compared with the combinations.
# Each solution was then combined with S. aureus and the log reduction of the S. aureus was measured at 1, 3 and 24 hours.
# P. aeruginosa [4] = assay: Synergy evaluation, checkerboard titration, macro-dilution; format: cell-based
# Method: (§1) The first set of experiments conducted, were screening experiments using checkerboard titration strategy to assess if the combinations fall within a range having an Fractional Inhibitory Concentration (FIC) index value of ≤1. The method used was a NCCLS macro-dilution procedure.
# (§2) The Checkerboard Titration method was used to assess the interactions between TEDTA and Ethanol. […] During this experiment, TEDTA and Ethanol were tested in the combinations to assess if the combinations have a Fractional Inhibitory Concentration (FIC) index of ≤1. The following concentrations were tested:
# (§3) Fractional Inhibitory Concentration (FIC) is defined as the MIC of the compound in combination divided by the MIC of the compound alone. If the FIC index is ≤0.5, the combination is interpreted to be synergistic; <1 but >0.5—as partially synergistic; =1 as additive; >1 but <4 as indifferent; and ≥4 as antagonistic. In order to calculate the FIC index the following calculations are performed for compounds A and B:
# (§4) FIC-A=(MIC of A in combination)/(MIC of A alone)
# (§5) FIC-B=(MIC of B in combination)/(MIC of B alone)
# (§6) FIC-combination=FIC-A+FIC-B
# (§7) The following concentrations were tested:
# (§8) The MIC-TEDTA (MIC of TEDTA in combination with Ethanol), a minimum concentration of TEDTA, while in combination with Ethanol, that inhibited the growth of P. aeruginosa in MHB was found. In order to determine the MIC-Ethanol (MIC of Ethanol in combination with TEDTA), a minimum concentration of Ethanol, while in combination with TEDTA, that inhibited the growth of P. aeruginosa in MHB was found.
# S. aureus [5] = assay: as above; format: cell-based
# Method: as §1, §2, §3, §4, §5, §6
# In order to determine the MIC-Ethanol (MIC of Ethanol in combination with TEDTA), a minimum concentration of Ethanol, while in combination with TEDTA, which inhibited the growth of S. aureus in MHB was found.
# S. aureus [6] = assay: Minimum inhibitory concentration (MIC) via macro-dilution method; conditions: for MIC: S. aureus; for GROWTH: 24 hours, replicate columns
# C. albicans [7] = assay: Synergy evaluation, checkerboard titration, macro-dilution; format: cell-based
# Method: as §1, §2, §3, §4, §5, §6, §7
# as §8, with “C. albicans” for “P. aeruginosa”
# P. aeruginosa [8] = conditions: for MIC: P. aeruginosa; for GROWTH: 24 hours, replicate columns
# Method: (§9) Experiments were conducted to assess the minimum inhibitory concentration (MIC) both for sodium salt of EDTA that comprises tetra-sodium EDTA and Ethanol. […] Clear solution indicates no growth.
# (§10) The following solutions were prepared to evaluate the MIC values of sodium salt of EDTA that comprises tetra-sodium EDTA (TEDTA) and Ethanol.
# C. albicans [9] = conditions: for MIC: C. albicans; for GROWTH: 24 hours, replicate columns
# Method: as §9, §10
# [10] = up to 3000 mg infused over 3 hours, daily, treatment of hyper-calcemia in humans; cited from earlier work
# [11] = S. aureus in Mueller Hinton Broth
# [12] = TEDTA 0.06 WT % individual (0.25 MIC)
# [13] = TEDTA 0.12 WT % individual (0.50 MIC)
# [14] = TEDTA 0.24 WT % individual (1.00 MIC)
# [15] = TEDTA alone, listed as Sodium Salt(s) of EDTA
smiles,measurement,setting,value
OC[C@@H](O)[C@@H](O)[C@H](O)[C@H](O)CO [D-Mannitol],log reduction,C. albicans [1],> 5 log
same,log reduction,"P. aeruginosa [2]; P. aeruginosa, D-Mannitol 0.73 wt % alone, both at pH 7.5 & 11",> 5 log
same,LOG REDUCTION AGAINST P. aeruginosa,"P. aeruginosa [2]; footnote summary, D-mannitol alone, 0.73 wt %",D-MANNITOL EXHIBITS > 5 LOG REDUCTION AGAINST P. aeruginosa.
same,log reduction,S. aureus [3],> 4 log
"O=C([O-])CN(CCN(CC(=O)[O-])CC(=O)[O-])CC(=O)[O-].[Na+].[Na+].[Na+].[Na+] [TEDTA, tetra-sodium EDTA]",MIC-TEDTA (MIC of TEDTA in combination with Ethanol),P. aeruginosa [4]; P. aeruginosa in MHB,0.12 % (w/v)
same,FIC-TEDTA,"P. aeruginosa [4]; P. aeruginosa, 0.12/0.25",0.48
same,GROWTH,P. aeruginosa [4]; TEDTA 0.06 WT % individual (0.24 MIC),+VE
same,GROWTH,P. aeruginosa [4]; TEDTA 0.12 WT % individual (0.48 MIC),+VE
same,GROWTH,P. aeruginosa [4]; TEDTA 0.24 WT % individual (0.96 MIC),−VE
same,MIC-TEDTA (MIC of TEDTA in combination with Ethanol),S. aureus [5]; [11],0.06 % (w/v)
same,FIC-TEDTA,"S. aureus [5]; S. aureus, 0.06/0.24",0.25
same,GROWTH,S. aureus [5]; [12],+VE
same,GROWTH,S. aureus [5]; [13],+VE
same,GROWTH,S. aureus [5]; [14],−VE
same,MIC,S. aureus [6]; [15],0.24 WT %
same,GROWTH,S. aureus [6]; TEDTA 0.015 WT %,+VE
same,GROWTH,S. aureus [6]; TEDTA 0.030 WT %,+VE
same,GROWTH,S. aureus [6]; TEDTA 0.060 WT %,+VE
same,GROWTH,S. aureus [6]; TEDTA 0.120 WT %,+VE
same,GROWTH,S. aureus [6]; TEDTA 0.240 WT %,−VE
same,MIC-TEDTA (MIC of TEDTA in combination with Ethanol),C. albicans [7]; C. albicans in MHB,0.06 % (w/v)
same,FIC-TEDTA,"C. albicans [7]; C. albicans, 0.06/0.24",0.25
same,GROWTH,C. albicans [7]; [12],−VE
same,GROWTH,C. albicans [7]; [13],−VE
same,GROWTH,C. albicans [7]; [14],−VE
same,MIC,P. aeruginosa [8]; [15],0.24 WT %
same,GROWTH,P. aeruginosa [8]; TEDTA 0.125 WT %,+VE
same,GROWTH,P. aeruginosa [8]; TEDTA 0.250 WT %,−VE
same,GROWTH,P. aeruginosa [8]; TEDTA 0.500 WT %,−VE
same,GROWTH,P. aeruginosa [8]; TEDTA 1.000 WT %,−VE
same,GROWTH,P. aeruginosa [8]; TEDTA 1.500 WT %,−VE
same,MIC,C. albicans [9]; [15],0.24 WT %
same,GROWTH,C. albicans [9]; TEDTA 0.015 WT %,+VE
same,GROWTH,C. albicans [9]; TEDTA 0.030 WT %,+VE
same,GROWTH,C. albicans [9]; TEDTA 0.060 WT %,+VE
same,GROWTH,C. albicans [9]; TEDTA 0.120 WT %,+VE
same,GROWTH,C. albicans [9]; TEDTA 0.240 WT %,−VE
O=C([O-])CN(CCN(CC(=O)[O-])CC(=O)O)CC(=O)O.[Na+].[Na+] [EDTA disodium],tolerability of infused dose,[10],well tolerated
"CCO [ETHANOL, Ethanol]",GROWTH,P. aeruginosa [4]; ETHANOL 1.563 VOL % individual (0.25 MIC),+VE
same,GROWTH,P. aeruginosa [4]; ETHANOL 3.125 VOL % individual (0.50 MIC),+VE
same,GROWTH,P. aeruginosa [4]; ETHANOL 6.250 VOL % individual (1.00 MIC),−VE
same,MIC-Ethanol (MIC of Ethanol in combination with TEDTA),P. aeruginosa [4]; P. aeruginosa in MHB,3.125 % (v/v)
same,FIC-Ethanol,"P. aeruginosa [4]; P. aeruginosa, 3.125/6.25",0.5
same,GROWTH,S. aureus [5]; ETHANOL 6.250 VOL % individual (0.25 MIC),+VE
same,GROWTH,S. aureus [5]; ETHANOL 12.500 VOL % individual (0.50 MIC),+VE
same,GROWTH,S. aureus [5]; ETHANOL 25.000 VOL % individual (1.00 MIC),−VE
same,MIC-ETH (MIC of Ethanol in combination with TEDTA),S. aureus [5]; [11],6.25 % (w/v)
same,FIC-Ethanol,"S. aureus [5]; S. aureus, 6.25/25",0.25
same,GROWTH,S. aureus [6]; ETHANOL 3.13 VOL %,+VE
same,GROWTH,S. aureus [6]; ETHANOL 6.25 VOL %,+VE
same,GROWTH,S. aureus [6]; ETHANOL 12.50 VOL %,+VE
same,GROWTH,S. aureus [6]; ETHANOL 25.00 VOL %,−VE
same,GROWTH,S. aureus [6]; ETHANOL 50.00 VOL %,−VE
same,MIC,S. aureus [6]; ethanol alone,25 VOL %
same,MIC-Ethanol (MIC of Ethanol in combination with TEDTA),C. albicans [7]; C. albicans in MHB,0.781 % (v/v)
same,FIC-Ethanol,"C. albicans [7]; C. albicans, 0.781/3.125",0.25
same,GROWTH,C. albicans [7]; ETHANOL 0.781 VOL % individual (0.25 MIC),+VE
same,GROWTH,C. albicans [7]; ETHANOL 1.563 VOL % individual (0.50 MIC),+VE
same,GROWTH,C. albicans [7]; ETHANOL 3.125 VOL % individual (1.00 MIC),−VE
same,GROWTH,P. aeruginosa [8]; ETHANOL 3.13 VOL %,+VE
same,GROWTH,P. aeruginosa [8]; ETHANOL 6.25 VOL %,−VE
same,GROWTH,P. aeruginosa [8]; ETHANOL 12.50 VOL %,−VE
same,GROWTH,P. aeruginosa [8]; ETHANOL 25.00 VOL %,−VE
same,GROWTH,P. aeruginosa [8]; ETHANOL 50.00 VOL %,−VE
same,MIC,P. aeruginosa [8]; ethanol alone,6.25 VOL %
same,MIC,C. albicans [9]; ethanol alone,3.125 VOL %
same,GROWTH,C. albicans [9]; ETHANOL 3.125 VOL %,−VE
same,GROWTH,C. albicans [9]; ETHANOL 6.25 VOL %,−VE
same,GROWTH,C. albicans [9]; ETHANOL 12.50 VOL %,−VE
same,GROWTH,C. albicans [9]; ETHANOL 25.00 VOL %,−VE
same,GROWTH,C. albicans [9]; ETHANOL 50.00 VOL %,−VE
